In patent US12077503B2, “Substituted cyclic amides and their use as herbicides” (FMC CORPORATION, priority 2015, dated 2024):

Experiments:
Type in all cases: in vivo
[1] = system: Kochia (Kochia scoparia); assay: Test A postemergence; conditions: Bassia scoparia, post-emergence, 240 h, 125 g ai/ha, postemergence, visual injury rating after approximately 10 d; read-out: Kochia plant response rating (0 to 100 scale, 0 no effect, 100 complete control)
Outline: (§1)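 Visual injury scores from 0, no effect, to 100, complete control, were assigned versus untreated controls roughly 10 d after treatment in the greenhouse. Test chemicals, formulated with surfactant in a non-phytotoxic solvent, were applied to planted seeds as a preemergence soil spray or postemergence to one- to two-leaf plants 2 to 10 cm tall, in loam–sand soil.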

[2] = system: pigweed (Amaranthus retroflexus); assay: Test A postemergence; conditions: Amaranthus retroflexus, post-emergence, 240 h, 125 g ai/ha, postemergence, visual injury rating after approximately 10 d; read-out: Pigweed plant response rating (0 to 100 scale, 0 no effect, 100 complete control)
Outline: as §1

[3] = system: ragweed (common ragweed, Ambrosia elatior); assay: Test A postemergence; conditions: Ambrosia artemisiifolia, post-emergence, 240 h, 125 g ai/ha, postemergence, visual injury rating after approximately 10 d; read-out: Ragweed plant response rating (0 to 100 scale, 0 no effect, 100 complete control)
Outline: as §1

[4] = system: barnyardgrass (Echinochloa crus-galli); assay: Test A postemergence; conditions: Echinochloa crus-galli, post-emergence, 240 h, 125 g ai/ha, postemergence, visual injury rating after approximately 10 d; read-out: Barnyardgrass plant response rating (0 to 100 scale, 0 no effect, 100 complete control)
Outline: as §1

[5] = system: blackgrass (Alopecurus myosuroides); assay: Test A postemergence; conditions: Alopecurus myosuroides, post-emergence, 240 h, 125 g ai/ha, postemergence, visual injury rating after approximately 10 d; read-out: Blackgrass plant response rating (0 to 100 scale, 0 no effect, 100 complete control)
Outline: as §1

[6] = system: Galium (catchweed bedstraw, Galium aparine); assay: Test A postemergence; conditions: Galium, post-emergence, 240 h, 125 g ai/ha, postemergence, visual injury rating after approximately 10 d; read-out: Galium plant response rating (0 to 100 scale, 0 no effect, 100 complete control)
Outline: as §1

[7] = system: ryegrass, Italian (Italian ryegrass, Lolium multiflorum); assay: Test A postemergence; conditions: Lolium multiflorum, post-emergence, 240 h, 125 g ai/ha, postemergence, visual injury rating after approximately 10 d; read-out: Ryegrass, Italian plant response rating (0 to 100 scale, 0 no effect, 100 complete control)
Outline: as §1

[8] = system: corn (Zea mays); assay: Test A postemergence; conditions: Zea mays, post-emergence, 240 h, 125 g ai/ha, postemergence, visual injury rating after approximately 10 d; read-out: Corn plant response rating (0 to 100 scale, 0 no effect, 100 complete control)
Outline: as §1

[9] = system: wheat (Triticum aestivum); assay: Test A postemergence; conditions: Triticum aestivum, post-emergence, 240 h, 125 g ai/ha, postemergence, visual injury rating after approximately 10 d; read-out: Wheat plant response rating (0 to 100 scale, 0 no effect, 100 complete control)
Outline: as §1

[10] = system: Kochia (Kochia scoparia); assay: Test A preemergence; conditions: Bassia scoparia, pre-emergence, 240 h; for pest or weed control at 125 g/ha: 125 g ai/ha, preemergence, 0 to 100 scale where 0 is no effect and 100 is complete control, read-out: Kochia plant response rating; for pest or weed control at 500 g/ha: 500 g ai/ha, Preemergence, visual injury vs untreated controls after approximately 10 d, read-out: Kochia plant response rating (0 to 100 scale where 0 is no effect and 100 is complete control)
Outline: as §1

[11] = system: pigweed (Amaranthus retroflexus); assay: Test A preemergence; conditions: Amaranthus retroflexus, pre-emergence, 240 h; for pest or weed control at 125 g/ha: 125 g ai/ha, preemergence, 0 to 100 scale where 0 is no effect and 100 is complete control, read-out: Pigweed plant response rating; for pest or weed control at 500 g/ha: 500 g ai/ha, Preemergence, visual injury vs untreated controls after approximately 10 d, read-out: Pigweed plant response rating (0 to 100 scale where 0 is no effect and 100 is complete control)
[12] = system: ragweed (common ragweed, Ambrosia elatior); assay: Test A preemergence; conditions: Ambrosia artemisiifolia, pre-emergence, 240 h; for pest or weed control at 125 g/ha: 125 g ai/ha, preemergence, 0 to 100 scale where 0 is no effect and 100 is complete control, read-out: Ragweed plant response rating; for pest or weed control at 500 g/ha: 500 g ai/ha, Preemergence, visual injury vs untreated controls after approximately 10 d, read-out: Ragweed plant response rating (0 to 100 scale where 0 is no effect and 100 is complete control)
Outline: as §1

[13] = system: barnyardgrass (Echinochloa crus-galli); assay: Test A preemergence; conditions: Echinochloa crus-galli, pre-emergence, 240 h; for pest or weed control at 125 g/ha: 125 g ai/ha, preemergence, 0 to 100 scale where 0 is no effect and 100 is complete control, read-out: Barnyardgrass plant response rating; for pest or weed control at 500 g/ha: 500 g ai/ha, Preemergence, visual injury vs untreated controls after approximately 10 d, read-out: Barnyardgrass plant response rating (0 to 100 scale where 0 is no effect and 100 is complete control)
Outline: as §1

[14] = system: giant foxtail (Setaria faberii); assay: Test A preemergence; conditions: Setaria faberi, pre-emergence, 240 h; for pest or weed control at 125 g/ha: 125 g ai/ha, preemergence, 0 to 100 scale where 0 is no effect and 100 is complete control, read-out: Foxtail, Giant plant response rating; for pest or weed control at 500 g/ha: 500 g ai/ha, Preemergence, visual injury vs untreated controls after approximately 10 d, read-out: Foxtail, Giant plant response rating (0 to 100 scale where 0 is no effect and 100 is complete control)
Outline: as §1

[15] = system: ryegrass, Italian (Italian ryegrass, Lolium multiflorum); assay: Test A preemergence; conditions: Lolium multiflorum, pre-emergence, 240 h; for pest or weed control at 125 g/ha: 125 g ai/ha, preemergence, 0 to 100 scale where 0 is no effect and 100 is complete control, read-out: Ryegrass, Italian plant response rating; for pest or weed control at 500 g/ha: 500 g ai/ha, Preemergence, visual injury vs untreated controls after approximately 10 d, read-out: Ryegrass, Italian plant response rating (0 to 100 scale where 0 is no effect and 100 is complete control)
Outline: as §1

| SMILES | pest or weed control at 125 g/ha [1] | pest or weed control at 125 g/ha [2] | pest or weed control at 125 g/ha [3] | pest or weed control at 125 g/ha [4] | pest or weed control at 125 g/ha [5] | pest or weed control at 125 g/ha [6] | pest or weed control at 125 g/ha [7] | plant injury at 125 g/ha [8] | plant injury at 125 g/ha [9] | pest or weed control at 125 g/ha [10] | pest or weed control at 500 g/ha [10] | pest or weed control at 125 g/ha [11] | pest or weed control at 500 g/ha [11] | pest or weed control at 125 g/ha [12] | pest or weed control at 500 g/ha [12] | pest or weed control at 125 g/ha [13] | pest or weed control at 500 g/ha [13] | pest or weed control at 125 g/ha [14] | pest or weed control at 500 g/ha [14] | pest or weed control at 125 g/ha [15] | other results |
| --- | --- | --- | --- | --- | --- | --- | --- | --- | --- | --- | --- | --- | --- | --- | --- | --- | --- | --- | --- | --- | --- |
| COc1c(F)ccc([C@H]2CNC(=O)[C@@H]2C(=O)Nc2ccc(F)cc2F)c1Cl [Compound 883] | 30% | 0% | 0% | 90% | 0% | 0% | 0% | 0% | 0% | 30% | 60% | 0% | 0% | 0% | 0% | 90% | 90% | 60% | 90% | 0% | pest or weed control at 500 g/ha [15]: 20% |
| COc1cccc(C2CN(C)C(=O)C2C(=O)Nc2cccc(F)c2F)c1 (stereo not drawn) [Compound 886] | 0% | 0% | 0% | 90% | 20% | 0% | 20% | 40% | 0% | 80% | 90% | 0% | 0% | 0% | 50% | 90% | 90% | 90% | 100% | 0% | pest or weed control at 500 g/ha [15]: 60% |
| Cc1cc(C)cc([C@H]2CNC(=O)[C@@H]2C(=O)Nc2ccccc2F)c1 [Compound 888] | 0% | 0% | 0% | 90% | 20% | 0% | 0% | 0% | 0% | 60% | 80% | 0% | 0% | 0% | 0% | 90% | 90% | 80% | 90% | 0% | pest or weed control at 500 g/ha [15]: 60% |
| COc1c(F)ccc([C@H]2CN(C)C(=O)[C@@H]2C(=O)Nc2ccccc2F)c1Cl [Compound 892] | 40% | 0% | 0% | 90% | 0% | 20% | 60% | 0% | 0% | 70% | 90% | 0% | 40% | 20% | 50% | 100% | 100% | 100% | 100% | 30% | pest or weed control at 500 g/ha [15]: 90% |
| COc1c(F)ccc([C@H]2CN(C)C(=O)[C@@H]2C(=O)Nc2ccc(F)c(F)c2F)c1Cl [Compound 895] | 70% | 40% | 0% | 90% | 60% | 70% | 60% | 80% | 40% | 90% | 90% | 50% | 50% | 0% | 0% | 90% | 100% | 90% | 90% | 90% | pest or weed control at 500 g/ha [15]: 70% |
| COc1c(F)ccc([C@H]2CN(C)C(=O)[C@@H]2C(=O)Nc2ccccc2C(F)(F)F)c1Cl [Compound 896] | 20% | 20% | 0% | 90% | 40% | 40% | 50% | 20% | 30% | 30% | 50% | 20% | 40% | 0% | 0% | 90% | 90% | 90% | 100% | 40% | pest or weed control at 500 g/ha [15]: 70% |
